Measurements from patent publication US6462055B2, “Alpha-methylbenzyl-containing thiourea inhibitors of herpes viruses containing a phenylenediamine group” (Wyeth, priority 1998, dated 2002).
≈ marks a conversion by molar mass, not a printed value.

Assays:
HSV-1 = experiment: HSV Antiviral (ELISA) Assay in Vero cells; type: cell-based, herpes simplex virus type 1; settings: HSV-1, Vero cells; for IC50: Human alphaherpesvirus 1, read-out: IC50 (ug/ml) HSV
How it was run: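 Viral replication was quantified by cell-fixed ELISA for HSV glycoprotein D, using a β-galactosidase reporter and fluorogenic umbelliferyl substrate, about 24 h after HSV-1 infection (MOI 0.006) of Vero cells. Compounds, at several concentrations, were added 30 min pre-infection. IC50 was derived from fluorescence relative to the compound-free signal.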

[1] = system: HCMV recombinant mutant virus (RV145); experiment: microbe, parasite or virus in culture; type: cell-based, human cytomegalovirus; settings: for IC50: Human betaherpesvirus 5, read-out: IC50 ug/ml HCMV, HCMV
How it was run: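 Human foreskin fibroblasts infected with HCMV RV145 carrying a viral-promoter-driven beta-glucuronidase gene, in presence of compound. At 96 h post-infection, lysates assayed for beta-glucuronidase with colorimetric or fluorogenic glucuronide substrate as replication read-out. IC50 estimated from varying inhibitor amounts.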

VZV strain Ellen = experiment: VZV Antiviral (ELISA) Assay in human foreskin fibroblast cells; type: cell-based, varicella-zoster virus; settings: for inhibition at 10 µg/mL / IC50: Human alphaherpesvirus 3, Fibroblast; for inhibition at 10 µg/mL: read-out: % inhibition 10 ug/ml VZV, 10 ug/ml; for IC50: read-out: IC50 (ug/ml) VZV
How it was run: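 HFF cells infected with VZV Ellen at low multiplicity (<0.1) overnight were seeded at 3.5×10^4 cells/well in DMEM with 2% FBS plus compound and incubated three days at 37° C., 5% CO2. Viral replication was read by ELISA against glycoprotein II with β-galactosidase fluorogenic readout (ex 365/em 450 nm); IC50 relative to no-compound fluorescence.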

Structure (SMILES) | IC50 (ug/ml) HSV (HSV-1) [µg/mL] | IC50 ug/ml HCMV [1] [µg/mL] | IC50 (ug/ml) VZV (VZV strain Ellen) [µg/mL] | % inhibition 10 ug/ml VZV (VZV strain Ellen) [%] | IC50 (HSV-1) [µg/mL] | IC50 [1] [µg/mL] | inhibition at 10 µg/mL (VZV strain Ellen) [%] | IC50 (VZV strain Ellen) [µg/mL]
COc1cc(OC)c(NC(=S)Nc2ccc(NC(=O)c3ccccc3N[S+](C)[O-])cc2)cc1Cl (stereo not shown) [Example 191] | 8 (≈ 15.4 µM) | >10 | >10 | 22 |  |  |  | 
COc1cc(OC)c(NC(=S)Nc2ccc(NC(=O)c3cccc(OCC(=O)O)c3)cc2)cc1Cl [Example 222] | >50 | >50 | >10 | 17 |  |  |  | 
O=C(O)c1cccc(NC(=S)Nc2ccc(NC(=O)c3ccccc3F)cc2)c1 [Example 963, 3-{3-[4-(2-Fluoro-benzoylamino)-phenyl]-thioureido}-benzoic acid] |  |  |  |  | > 10 | > 10 | 30 | > 10
CC(NC(=S)Nc1ccc(NC(=O)c2ccccc2F)cc1)c1cccc(Br)c1 (stereo not shown) [Example 780] | >10 | 1 (≈ 2.12 µM) | 1.2 (≈ 2.54 µM) |  |  |  |  | 
CC(NC(=S)Nc1ccc(C(=O)Nc2ccc(F)cc2)cc1)c1ccc(F)cc1 (stereo not shown) [Example 975, N-(4-Fluoro-phenyl)-4-{3-[1-(4-fluoro-phenyl)-ethyl]-thioureido}-benzamide] |  |  |  |  | > 10 | > 10 |  | 0.87 (≈ 2.11 µM)
CC(=O)Oc1ccc(C(=O)Nc2ccc(NC(=S)NC(C)c3ccc(F)cc3)cc2)cc1 (stereo not shown) [Example 757] | >10 | >10 | 1.5 (≈ 3.32 µM) |  |  |  |  | 
CC(NC(=S)Nc1ccc(NC(=O)c2cc3ccccc3o2)cc1)c1ccc(F)cc1 (stereo not shown) [Example 980, Benzofuran-2-carboxylic acid (4-{3-[1-(4-fluoro-phenyl)-ethyl]-thioureido}-phenyl)-amide] |  |  |  |  | > 10 | > 10 |  | 0.15 (≈ 0.346 µM)
COc1ccccc1C(=O)Nc1ccc(NC(=S)NC(C)c2ccc(Br)cc2)cc1 (stereo not shown) [Example 1019, N-(4-{3-[1-(4-Bromo-phenyl)-ethyl]-thioureido}-phenyl)-2-methoxy-benzamide] |  |  |  |  | > 10 | 2.6 (≈ 5.37 µM) |  | 0.05 (≈ 0.103 µM)
CN(C)c1ccc(NC(=S)Nc2ccc(NC(=O)c3c(F)cccc3F)cc2)cc1Cl [Example 348] | 4 (≈ 8.68 µM) | 0.8 (≈ 1.74 µM) | 8 (≈ 17.4 µM) | 95 |  |  |  | 
CC(NC(=S)Nc1ccc(NC(=O)c2ccccc2F)cc1)c1ccc(F)cc1 (stereo not shown) [Example 591] |  |  |  |  | > 10 | 7 (≈ 17 µM) |  | 1.5 (≈ 3.65 µM)
CC(=O)Nc1cccc(NC(=S)Nc2ccc(NC(=O)c3ccccc3F)cc2)c1 [Example 477] | >10 | >10 | >10 | 15 |  |  |  | 
CCCCC(NC(=S)Nc1ccc(NC(=O)c2ccccc2F)cc1)c1ccc(F)cc1 (stereo not shown) [Example 773] | >10 | 1.2 (≈ 2.65 µM) | >7.5 |  |  |  |  | 
COc1cc(OC)c(NC(=S)Nc2ccc(NC(=O)c3cccc(OCCN(C)C)c3)cc2)cc1Cl [Example 257] | 2.5 (≈ 4.73 µM) | 7 (≈ 13.2 µM) | 2.5 (≈ 4.73 µM) | 105 |  |  |  | 
Nc1c(Br)cc(NC(=S)Nc2ccc(NC(=O)c3ccccc3F)cc2)cc1Br [Example 519] | 0.4 (≈ 0.743 µM) | 1.7 (≈ 3.16 µM) | >10 | 18 |  |  |  | 
O=C(Nc1ccc(NC(=S)Nc2cccc(F)c2)cc1)c1ccccc1F [Example 962, 2-Fluoro-N-{4-[3-(3-fluoro-phenyl)-thioureido]-phenyl}-benzamide] |  |  |  |  | > 10 | > 10 | 10 | > 10
O=C(Nc1ccc(NC(=S)NCc2ccccc2)cc1)c1ccccc1F [Example 536] | >10 | >10 | >10 |  |  |  |  | 

Structure (SMILES) | IC50 (ug/ml) HSV (HSV-1) [µg/mL] | IC50 ug/ml HCMV [1] [µg/mL] | IC50 (ug/ml) VZV (VZV strain Ellen) [µg/mL] | % inhibition 10 ug/ml VZV (VZV strain Ellen) [%] | IC50 (HSV-1) [µg/mL] | IC50 [1] [µg/mL] | inhibition at 10 µg/mL (VZV strain Ellen) [%] | IC50 (VZV strain Ellen) [µg/mL]
O=C(Nc1ccc(NC(=S)Nc2cc(Cl)c(Cl)c(Cl)c2)cc1)c1ccccc1F [Example 937, 2-Fluoro-N-{4-[3-(3,4,5-trichloro-phenyl)-thioureido]-phenyl}-benzamide] |  |  |  |  | 0.7 (≈ 1.49 µM) | 2 (≈ 4.27 µM) | 25 | > 10
Cc1ccc(C(C)NC(=S)Nc2ccc(NC(=O)c3ccccc3F)cc2)cc1 (stereo not shown) [Example 782] | >10 | 0.9 (≈ 2.21 µM) | 3 (≈ 7.36 µM) |  |  |  |  | 
O=C(Nc1ccc(NC(=S)NCCCc2ccccc2)cc1)c1ccccc1F [Example 628] | >10 | >10 | 10 (≈ 24.5 µM) |  |  |  |  | 
O=C(Nc1ccc(NC(=S)Nc2ccc(OC(F)(F)F)c(Br)c2)cc1)c1ccccc1F [Example 549] | >10 | >10 | >10 |  |  |  |  | 
COc1cc(C)c(Cl)cc1NC(=S)Nc1ccc(NC(=O)c2ccccc2F)cc1 [Example 849, N-{4-[3-(5-Chloro-2-methoxy-4-methyl-phenyl)-thioureido]-phenyl}-2-fluoro-benzamide] |  |  |  |  | > 10 | > 10 | 38 | > 10
CCCCN(C)c1cc(NC(=S)Nc2ccc(NC(=O)c3ccccc3F)cc2)cc(C(F)(F)F)c1 [Example 598] | >10 | >10 | >10 |  |  |  |  | 
CN(C)c1cc(CNC(=S)Nc2ccc(NC(=O)c3ccccc3F)cc2)cc(C(F)(F)F)c1 [Example 636] | >10 | >10 | 5 (≈ 10.2 µM) |  |  |  |  | 
CC(NC(=S)Nc1ccc(NC(=O)c2cc3ccccc3o2)cc1)c1cc2ccccc2o1 (stereo not shown) [Example 981, Benzofuran-2-carboxylic acid {4-[3-(1-benzofuran-2-yl-ethyl)-thioureido]-phenyl}-amide] |  |  |  |  | > 10 | > 10 |  | 0.2 (≈ 0.439 µM)
COc1cc(OC)c(NC(=S)Nc2ccc(NC(=O)c3cccc(OC(F)(F)F)c3)cc2)cc1Cl [Example 256] | 2 (≈ 3.8 µM) | 9 (≈ 17.1 µM) | >10 | 15 |  |  |  | 
COc1cc(OC)c(NC(=S)Nc2ccc(NC(=O)c3ccc(F)cc3F)cc2)cc1Cl [Example 188] | 1.2 (≈ 2.51 µM) | >10 | >10 | 22 |  |  |  | 
CC(NC(=S)Nc1ccc(NC(=O)c2ccc(O)cc2)cc1)c1ccc(F)cc1 (stereo not shown) [Example 760] |  |  |  |  | > 10 | > 10 |  | > 10
O=C(Nc1ccc(NC(=S)Nc2ccc3scnc3c2)cc1)c1ccccc1F [Example 484] | 0.4 (≈ 0.947 µM) | >10 | >10 | 28 |  |  |  | 
CCCCOc1cccc(C(=O)Nc2ccc(NC(=S)Nc3cc(Cl)c(OC)cc3OC)cc2)c1 [Example 219] | 2.5 (≈ 4.86 µM) | >10 | >10 | 30 |  |  |  | 
O=C(Nc1ccc(NC(=S)Nc2cc(Cl)ccc2Cl)cc1)c1ccccc1F [Example 931, N-{4-[3-(2,5-Dichloro-phenyl)-thioureido]-phenyl}-2-fluoro-benzamide] |  |  |  |  | 4 (≈ 9.21 µM) | > 10 | 51 | > 10
COc1cc(OC)c(NC(=S)Nc2ccc(NC(=O)c3ccccc3[S+](C)[O-])cc2)cc1Cl (stereo not shown) [Example 220] | >10 | >10 | >10 | 35 |  |  |  | 
